Measured values reported in patent US10105357B2, “Indication of antibiotic drugs for preparation of cancer inhibition pharmaceutical composition” (LAUNX BIOMEDICAL CO., LTD., priority 2014, dated 2018).
Structures can show the parent of a compound that is named as a salt. Where two headings read alike, the source gives them in different places.

What was measured:
[1] = test system: AGS (Gastric Adenocarcinoma); experiment: Cell viability analysis, gastric cancer AGS; assay type: cell-based, human; conditions: Homo sapiens
[2] = test system: A549 (Lung Adenocarcinoma); experiment: Cell viability analysis, lung cancer A549; assay type: cell-based, human; conditions: Homo sapiens
[3] = test system: LoVo (Colorectal Adenocarcinoma); experiment: Cell viability analysis, colon cancer LoVo; assay type: cell-based, human; conditions: Homo sapiens, LoVo
[4] = test system: HepG2 (Hepatocellular Carcinoma); experiment: Cell viability analysis, hepatic cancer HepG2; assay type: cell-based, human; conditions: Homo sapiens
[5] = test system: HCT116 (p53+) (Colorectal Carcinoma); experiment: cells; conditions: Homo sapiens, HCT-116, 72 h, read-out: cell viability (survival rate), HCT116
[6] = test system: HL-60 (Acute Promyelocytic Leukemia); experiment: Cell viability analysis, leukemia HL-60; assay type: cell-based, human; conditions: Homo sapiens
[7] = test system: TSGH-8301 (Urinary Bladder Carcinoma); experiment: Cell viability analysis, bladder cancer TSGH-8301; assay type: cell-based, human; conditions: Homo sapiens
[8] = test system: MKN-45 (Gastric Adenocarcinoma); experiment: Cell viability analysis, gastric cancer MKN-45; assay type: cell-based, human; conditions: Homo sapiens
[9] = test system: HeLa (Cervix Adenocarcinoma); experiment: Cell viability analysis, cervical cancer HeLa; assay type: cell-based, human; conditions: Homo sapiens, HeLa
[10] = test system: HI650 (Lung Adenocarcinoma); experiment: Cell viability analysis, lung cancer HI650; assay type: cell-based, human; conditions: Homo sapiens
[11] = test system: MCF7 (Mammary Gland, Adenocarcinoma); experiment: Cell viability analysis, breast cancer MCF7; assay type: cell-based, human; conditions: Homo sapiens
[12] = test system: A375 (Amelanotic Melanoma); experiment: Cell viability analysis, skin cancer A375; assay type: cell-based, human; conditions: Homo sapiens
[13] = test system: PC3 (p53−) (Prostate Adenocarcinoma); experiment: Cell viability analysis, prostate cancer PC3; assay type: cell-based, human; conditions: Homo sapiens
[14] = 72 h, read-out: cell viability (survival rate), LoVo, drug 10 μM, 72 hours, WST-1, OD450 nm
[15] = 72 h, drug 10 μM, 72 hours, WST-1, OD450 nm, read-out: cell viability (survival rate), AGS
[16] = A549, 72 h, drug 10 μM, 72 hours, WST-1, OD450 nm, read-out: cell viability (survival rate), A549
[17] = HepG2, 72 h, drug 10 μM, 72 hours, WST-1, OD450 nm, read-out: cell viability (survival rate), HepG2
[18] = HL-60, 72 h, drug 10 μM, 72 hours, WST-1, OD450 nm, read-out: cell viability (survival rate), HL-60
[19] = 72 h, drug 10 μM, 72 hours, WST-1, OD450 nm, read-out: cell viability (survival rate), TSGH
[20] = MKN-45, 72 h, drug 10 μM, 72 hours, WST-1, OD450 nm, read-out: cell viability (survival rate), MKN-45
[21] = 72 h, drug 10 μM, 72 hours, WST-1, OD450 nm, read-out: cell viability (survival rate), HeLa
[22] = NCI-H1650, 72 h, drug 10 μM, 72 hours, WST-1, OD450 nm, read-out: cell viability (survival rate), H1650
[23] = MCF7, 72 h, drug 10 μM, 72 hours, WST-1, OD450 nm, read-out: cell viability (survival rate), MCF7
[24] = A-375, 72 h, drug 10 μM, 72 hours, WST-1, OD450 nm, read-out: cell viability (survival rate), A375
[25] = 72 h, drug 10 μM, 72 hours, WST-1, OD450 nm, read-out: cell viability (survival rate), PC3
[26] = drug 10 μM, 72 hours, WST-1, OD450 nm, read-out: cell viability (survival rate), AGS
[27] = A549, drug 10 μM, 72 hours, WST-1, OD450 nm, read-out: cell viability (survival rate), A549
[28] = drug 10 μM, 72 hours, WST-1, OD450 nm, read-out: cell viability (survival rate), LoVo
[29] = HepG2, drug 10 μM, 72 hours, WST-1, OD450 nm, read-out: cell viability (survival rate), HepG2
[30] = HL-60, drug 10 μM, 72 hours, WST-1, OD450 nm, read-out: cell viability (survival rate), HL-60
[31] = drug 10 μM, 72 hours, WST-1, OD450 nm, read-out: cell viability (survival rate), TSGH
[32] = MKN-45, drug 10 μM, 72 hours, WST-1, OD450 nm, read-out: cell viability (survival rate), MKN-45
[33] = drug 10 μM, 72 hours, WST-1, OD450 nm, read-out: cell viability (survival rate), HeLa
[34] = NCI-H1650, drug 10 μM, 72 hours, WST-1, OD450 nm, read-out: cell viability (survival rate), H1650
[35] = MCF7, drug 10 μM, 72 hours, WST-1, OD450 nm, read-out: cell viability (survival rate), MCF7
[36] = A-375, drug 10 μM, 72 hours, WST-1, OD450 nm, read-out: cell viability (survival rate), A375
[37] = drug 10 μM, 72 hours, WST-1, OD450 nm, read-out: cell viability (survival rate), PC3

SMILES	viability at 10 µM [3, 14] [%]	viability at 10 µM [5] [%]	viability at 10 µM [1, 15] [%]	viability at 10 µM [2, 16] [%]	viability at 10 µM [4, 17] [%]	viability at 10 µM [6, 18] [%]	viability at 10 µM [7, 19] [%]	viability at 10 µM [8, 20] [%]	viability at 10 µM [9, 21] [%]	viability at 10 µM [10, 22] [%]	viability at 10 µM [11, 23] [%]	viability at 10 µM [12, 24] [%]	viability at 10 µM [13, 25] [%]	viability at 10 µM [1, 26] [%]	viability at 10 µM [2, 27] [%]	viability at 10 µM [3, 28] [%]	viability at 10 µM [4, 29] [%]	viability at 10 µM [6, 30] [%]	viability at 10 µM [7, 31] [%]	viability at 10 µM [8, 32] [%]	further results
Nc1c2ccccc2nc2ccccc12 [9-Aminoacridine]	58.5	70.5	–	–	–	–	–	–	–	–	–	–	–	–	–	–	–	–	–	–	viability at 10 µM ([1]; 72 h, read-out: cell viability (survival rate), AGS, drug 10 μM, 72 hours, WST-1, OD450 nm): 42.8%; viability at 10 µM ([2]; A549, 72 h, read-out: cell viability (survival rate), A549, drug 10 μM, 72 hours, WST-1, OD450 nm): 25.8%; viability at 10 µM ([4]; HepG2, 72 h, read-out: cell viability (survival rate), HepG2, drug 10 μM, 72 hours, WST-1, OD450 nm): 63.5%; viability at 10 µM ([6]; HL-60, 72 h, read-out: cell viability (survival rate), HL-60, drug 10 μM, 72 hours, WST-1, OD450 nm): 28.8%; viability at 10 µM ([7]; 72 h, read-out: cell viability (survival rate), TSGH, drug 10 μM, 72 hours, WST-1, OD450 nm): 34.6%; viability at 10 µM ([8]; MKN-45, 72 h, read-out: cell viability (survival rate), MKN-45, drug 10 μM, 72 hours, WST-1, OD450 nm): 63.1%; viability at 10 µM ([9]; 72 h, read-out: cell viability (survival rate), HeLa, drug 10 μM, 72 hours, WST-1, OD450 nm): 43.6%; viability at 10 µM ([10]; NCI-H1650, 72 h, read-out: cell viability (survival rate), H1650, drug 10 μM, 72 hours, WST-1, OD450 nm): 56.9%; viability at 10 µM ([11]; MCF7, 72 h, read-out: cell viability (survival rate), MCF7, drug 10 μM, 72 hours, WST-1, OD450 nm): 34.1%; viability at 10 µM ([12]; A-375, 72 h, read-out: cell viability (survival rate), A375, drug 10 μM, 72 hours, WST-1, OD450 nm): 36.4%; viability at 10 µM ([13]; 72 h, read-out: cell viability (survival rate), PC3, drug 10 μM, 72 hours, WST-1, OD450 nm): 38.7%
CCCCC(CC)CNC(=N)NC(=N)NCCCCCCNC(=N)NC(=N)NCC(CC)CCCC (centres unmarked) [Alexidine HCl]	54.6	65.8	45.1	25.3	65.9	29.4	36.6	64.4	44.9	57.5	34.8	38.1	38	–	–	–	–	–	–	–	–
CCC1(C)CC(=O)NC(=O)C1 [Bemegride]	–	47.7	–	–	–	–	–	–	–	–	–	–	–	62	60.2	88.5	90.7	125	93.3	99.7	viability at 10 µM [9, 33]: 62.7%; viability at 10 µM [10, 34]: 69.9%; viability at 10 µM [11, 35]: 123%; viability at 10 µM [12, 36]: 62.7%; viability at 10 µM [13, 37]: 113%
CCc1oc2ccccc2c1C(=O)c1cc(Br)c(O)c(Br)c1 [Benzbromarone]	105	128	80.1	51.5	103	85.5	99.9	86.2	104	75.3	52.8	99.2	80.9	–	–	–	–	–	–	–	–
O=C(O)c1ccccc1 [Benzoic acid]	–	41.9	–	–	–	–	–	–	–	–	–	–	–	53.1	36.7	60.5	79.1	111	39.5	43.4	viability at 10 µM [9, 33]: 59.6%; viability at 10 µM [10, 34]: 57.2%; viability at 10 µM [11, 35]: 31.4%; viability at 10 µM [12, 36]: 37%; viability at 10 µM [13, 37]: 36.8%
